How the values were obtained:
[1] = test system: S. aureus Newman; assay: fitness (endpoint OD595 vs no drug) (fraction); higher = more growth
Summary of the method: (§1)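 Fitness was defined as the optical density at the transition into stationary phase relative to the robust mean of no-drug control wells. Values were capped at 1. Cultures were started at OD595 0.01 in 384-well plates (30 µl, or 55 µl for S. pneumoniae) in TSB, LB Lennox or CY at 37 °C. OD595 was recorded every 30 min over 14 h, with the first reading subtracted as background.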

[2] = test system: S. pneumoniae D39V; assay: as above
Summary of the method: as §1

[3] = test system: B. subtilis 168; assay: Bliss interaction score (quartile over a dose matrix) (fitness difference); higher = more antagonism (negative = synergy)
Summary of the method: (§2)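 The Bliss score is observed fitness minus expected fitness, where the expected value is the product of single-drug fitness values inferred from combination data. Fitness is OD595 at entry into stationary phase normalised to the plate's robust no-drug mean and capped at 1. Scores are reported as quartiles spanning technical, biological and donor/recipient replicates.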

[4] = test system: S. aureus DSM 20231; assay: as above
Summary of the method: as §2

[5] = test system: S. aureus Newman; assay: as above
Summary of the method: as §2

[6] = test system: S. pneumoniae D39V; assay: as above
Summary of the method: as §2

[7] = test system: B. subtilis 168; assay: fitness (endpoint OD595 vs no drug) (fraction); higher = more growth; settings: main component drawn
Summary of the method: as §1
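Throughout, for Bliss interaction score (quartile over a dose matrix): first quartile when negative (synergy) and third quartile when positive (antagonism).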

CNC(C)C1CCC(N)C(OC2C(N)CC(N)C(OC3OCC(C)(O)C(NC)C3O)C2O)O1 (configuration not stated) [Gentamicin] + C/C(=C\C(=O)OCCCCCCCCC(=O)O)C[C@@H]1OC[C@H](C[C@@H]2O[C@H]2[C@@H](C)[C@H](C)O)[C@@H](O)[C@H]1O [Pseudomonic acid]
fitness, [1], one replicate, main component drawn
Settings | first compound 1 µg/mL | first compound 2 µg/mL | first compound 4 µg/mL
partner 0.0313 µg/mL | 0.0474 | 0.0502 | 0.0545
partner 0.0625 µg/mL | 0.0311 | 0.0417 | 0.0388
partner 0.125 µg/mL | 0.0416 | 0.0314 | 0.0572

fitness, [2], main component drawn
Settings | first compound 2 µg/mL | first compound 4 µg/mL | first compound 8 µg/mL
partner 0.03 µg/mL | 0.922 | 0.923 | 0.881
partner 0.06 µg/mL | 0.727 | 0.769 | 0.673
partner 0.12 µg/mL | 0.396 | 0.393 | 0.323

main component drawn
Settings | Bliss interaction score
[3] | 0.0456
[4] | 0.0111
[5] | 0.0245
[6] | -0.134

CC1=C(C(=O)O)N2C(=O)[C@@H](NC(=O)[C@H](N)c3ccccc3)[C@H]2SC1 [Cephalexin] + Cn1nnc(-c2ccc(-c3ccc(N4C[C@H](CO)OC4=O)cc3F)cn2)n1 [Tedizolid]
fitness
Settings | first compound 0.25 µg/mL | first compound 0.5 µg/mL | first compound 1 µg/mL | first compound 2 µg/mL | first compound 4 µg/mL
[1], partner 0.0625 µg/mL | 0.965 | 0.999 | 0.967 | – | –
[1], partner 0.125 µg/mL | 0.914 | 0.901 | 0.924 | – | –
[2], partner 0.03125 µg/mL | – | – | 0.919 | 0.391 | 0.0118
[2], partner 0.0625 µg/mL | – | – | 0.928 | 0.53 | 0.113
[2], partner 0.125 µg/mL | – | – | 0.778 | 0.529 | 0.115

fitness, [2], one replicate
Settings | first compound 0.125 µg/mL | first compound 0.25 µg/mL | first compound 0.5 µg/mL
partner 0.125 µg/mL | 0.857 | 0.887 | 0.943
partner 0.25 µg/mL | 0.762 | 0.775 | 0.793
partner 0.5 µg/mL | 0.282 | 0.332 | 0.359

Settings | Bliss interaction score
[3] | -0.0471
[4] | -0.121
[5] | 0.0857
[6] | 0.304

CNC(C)C1CCC(N)C(OC2C(N)CC(N)C(OC3OCC(C)(O)C(NC)C3O)C2O)O1 (configuration not stated) [Gentamicin] + CN(C)C(=O)C(CCN1CCC(O)(c2ccc(Cl)cc2)CC1)(c1ccccc1)c1ccccc1 [Loperamide]
fitness, [7]
Settings | first compound 0.0625 µg/mL | first compound 0.125 µg/mL | first compound 0.25 µg/mL
partner 25 µg/mL | – | 0.0373 | 0.0438
partner 50 µg/mL | – | 0.0589 | 0.0483
partner 100 µg/mL | 0.0528 | 0.0432 | 0.0409

fitness, [2], main component drawn
Settings | partner 17.14 µg/mL | partner 20 µg/mL | partner 34.28 µg/mL | partner 40 µg/mL | partner 80 µg/mL
first compound 2 µg/mL | 0.968 | ≥ 1 | 0.967 | 0.994 | 0.193
first compound 4 µg/mL | ≥ 1 | ≥ 1 | 0.98 | ≥ 1 | –
first compound 8 µg/mL | 0.984 | ≥ 1 | 0.916 | ≥ 1 | –

[2], partner 68.57 µg/mL, one replicate, main component drawn
Settings | fitness
first compound 2 µg/mL | ≥ 1
first compound 4 µg/mL | 0.924
first compound 8 µg/mL | 0.937

main component drawn
Settings | Bliss interaction score
[3] | -0.159
[4] | 0.0997
[5] | 0.0802
[6] | 0.0792

CC[C@H]1OC(=O)[C@H](C)[C@@H](O[C@H]2C[C@@](C)(OC)[C@@H](O)[C@H](C)O2)[C@H](C)[C@@H](O[C@@H]2O[C@H](C)C[C@H](N(C)C)[C@H]2O)[C@](C)(O)C[C@@H](C)CN(C)[C@H](C)[C@@H](O)[C@]1(C)O [Azithromycin] + C/C(=C\C(=O)OCCCCCCCCC(=O)O)C[C@@H]1OC[C@H](C[C@@H]2O[C@H]2[C@@H](C)[C@H](C)O)[C@@H](O)[C@H]1O [Pseudomonic acid]
fitness, [1], one replicate
Settings | first compound 0.125 µg/mL | first compound 0.25 µg/mL | first compound 0.5 µg/mL
partner 0.0313 µg/mL | 0.0547 | 0.0237 | 0
partner 0.0625 µg/mL | 0.0262 | 0.0139 | 0.0154
partner 0.125 µg/mL | 0.0288 | 0.0141 | 0.0119

Settings | Bliss interaction score
[3] | -0.0541
[4] | -0.0221
[5] | -0.0303
[6] | -0.0833

CC1=C(C(=O)O)N2C(=O)[C@@H](NC(=O)[C@H](N)c3ccccc3)[C@H]2SC1 [Cephalexin] + CCCCCCCCCC(=O)N[C@@H]1[C@H]([C@@H]([C@H](O[C@H]1OC2=C3C=C4C=C2OC5=C(C=C(C=C5)[C@H]([C@H]6C(=O)N[C@@H](C7=C(C(=CC(=C7)O)OC8[C@H]([C@H]([C@@H]([C@H](O8)CO)O)O)O)C9=C(C=CC(=C9)[C@H](C(=O)N6)NC(=O)[C@@H]4NC(=O)[C@@H]1C2=CC(=CC(=C2)OC2=C(C=CC(=C2)[C@H](C(=O)N[C@H](CC2=CC(=C(O3)C=C2)Cl)C(=O)N1)N)O)O)O)C(=O)O)O[C@H]1[C@@H]([C@H]([C@@H]([C@H](O1)CO)O)O)NC(=O)C)Cl)CO)O)O [Teicoplanin]
fitness, [1], main component drawn
Settings | first compound 0.25 µg/mL | first compound 0.5 µg/mL | first compound 1 µg/mL
partner 0.1562 µg/mL | ≥ 1 | ≥ 1 | ≥ 1
partner 0.3125 µg/mL | ≥ 1 | ≥ 1 | ≥ 1
partner 0.625 µg/mL | ≥ 1 | ≥ 1 | ≥ 1

fitness, [1], one replicate, main component drawn
Settings | first compound 0.5 µg/mL | first compound 1 µg/mL | first compound 2 µg/mL
partner 0.62 µg/mL | 0.827 | 0.855 | 0.847
partner 1.24 µg/mL | 0.77 | 0.796 | 0.739
partner 2.48 µg/mL | 0.565 | 0.498 | 0.587

main component drawn
Settings | Bliss interaction score
[3] | 0.0688
[4] | 0.0334
[5] | 0.0429
[6] | 0.0339

Reference: the supplement of paper PMC10627819
